How the values were obtained:
basophils = assay: Basophil activation (CD63 FACS) after allergen stimulation, BTKi added before or after; type: cell-based, human; details: BTKi 1000 or 5000 nM added before or 1, 5, 15, 30 min after allergen stimulation; vs water control
Description: PBMCs were isolated from heparinized blood using Leucoseptubes (Greiner 227390) with Lymfoprep (Fresenius Kabi 1114547). Following isolation, the cells were washed and resuspended in RPMI 0.5% HSA (RPMI 1640 Gibco 72400-021, HSA Sigma A8763) to 0.25× original blood volume. 2 ng/ml of cytokine IL-3 (RD Peprotec cat nr 200-03) was added to the cells for Basophil priming with final 1 ng/ml. 50 μl of the cell suspension was used for each test, corresponding to 200 μl blood.
The test can be carried out with any BTKi. In the present example, the following BTKis were tested: • Acalabrutinib (Cat A-7337, 100 mM in DMSO) was diluted in RPMI 0.5% HSA to a concentration of 10,000 and 2,000 nM. • Ibrutinib was diluted in RPMI 0.5% HSA to a concentration of 20.000, 5.000 and 1.000 nM. • Branebrutinib was diluted in RPMI 0.5% HSA to a concentration of 20.000 and 5.000 nM. • Remibrutinib was diluted in RPMI 0.5% HSA to a concentration of 20.000 and 5.000 nM. • Pirtobrutinib was diluted in RPMI 0.5% HSA to a concentration of 20.000 and 5.000 nM.
Allergens: Grass pollen extract of the species Phleum pratense (ALK) was diluted in RPMI 0.5%-HSA to five concentrations of 100, 10, 1.0, 0.1 and 0.01 ng/ml. House dust mite allergen extract of the species Dermatophagoides pterinussinus (Derp ex) were made in concentrations of 0.1, 1 and 10 ug/ml by dilution in RPMI 0.5% HSA.
The experiment was performed in 96 deep-well plates. 50 μl cell suspension (as described above) was added to each well. 50 μl activation stimuli and 100 μl BTK inhibitor or buffer were added at different time points (t=0 min, 5 min, 15 min or 30 min). Following addition of the components, the plate was incubated at 37° C. water bath for one hour. After incubation, the activation was stopped by adding 500 μl FACS FLOW (BD342003), 0.5% BSA (Fisher scientific BP9703-100)+10 mM EDTA (Invitrogen 15575-038). The plate was centrifuged for 5 min, at 600×G and 4° C. Supernatants were harvested and used for measurement of histamine by ELISA (supplier). Cell pellets were further washed and stained for FACS analysis with CD63 FITC (BD 557288) CD203c APC (e-bio) and CD123 PE (BD340545) using standard FACS staining procedure, 30 min on ice protected from light, followed by fixation with Cell Fix (BD) before analysis on Fortessa flowcytometer. Flowcytometer data was analyzed using FlowJo software and statistical data from here used for data analysis.

ex-vivo blood basophils = details: leukemia patient treated with ibrutinib; cited from earlier work
JAK2/STAT3 pathway = details: cited from earlier work
[1] = test system: mast cell and basophil reactivity to food; details: ibrutinib daily for up to seven days before allergen exposure; cited from earlier work
basophil cells = details: pretreatment of basophil cells before allergen exposure; cited from earlier work

Structure (SMILES)	activation of cells after stimulation with an allergen (percent activation of basophils) (basophils)	IgE-dependent histamine release in ex-vivo blood basophils (ex-vivo blood basophils)	inhibition of JAK2/STAT3 pathway induced by Concavalin A (JAK2/STAT3 pathway)	mast cell and basophil reactivity to food (SPT, BAT) [1]	IgE-mediated histamine release (basophil cells)
CC#CC(=O)N[C@H]1CCCN(c2c(F)cc(C(N)=O)c3[nH]c(C)c(C)c23)C1 [Branebrutinib, 4-[(3S)-3-(but-2-ynoylamino)piperidin-1-yl]-5-fluoro-2,3-dimethyl-1H-indole-7-carboxamide]	able to decrease the activation of cells	–	–	–	–
C=CC(=O)N1CCC[C@@H](n2nc(-c3ccc(Oc4ccccc4)cc3)c3c(N)ncnc32)C1 [Ibrutinib, 1-[(3R)-3-[4-amino-3-(4-phenoxyphenyl)-1H-pyrazolo[3,4-d]pyrimidin-1-yl]-1-piperidinyl]-2-propen-1-one]	able to decrease the activation of cells	largely suppressed	able to inhibit	can reduce mast cell and basophil reactivity	inhibit IgE-mediated histamine release
COc1ccc(F)cc1C(=O)NCc1ccc(-c2nn([C@@H](C)C(F)(F)F)c(N)c2C(N)=O)cc1 [Pirtobrutinib, 5-amino-3-[4-[[(5-fluoro-2-methoxybenzoyl)amino]methyl]phenyl]-1-[(2S)-1,1,1-trifluoropropan-2-yl]pyrazole-4-carboxamide]	able to decrease the activation of cells	–	–	–	–
C=CC(=O)N(C)CCOc1c(N)ncnc1-c1cc(F)cc(NC(=O)c2ccc(C3CC3)cc2F)c1C [Remibrutinib, N-[3-[6-amino-5-[2-[methyl(prop-2-enoyl)amino]ethoxy]pyrimidin-4-yl]-5-fluoro-2-methylphenyl]-4-cyclopropyl-2-fluorobenzamide]	able to decrease the activation of cells	–	–	–	–
